Counter-ions that a name gives are not always drawn. Starred links: 1 amine or outer side, 2 acyl side, 3 side chain; linkers in the order of their positions; H or OH if unused. Positions of bridges follow the written chain, without caps; N, C: chain ends. Non-standard residues stand in square brackets, D forms with d. Residues, ends and D or L forms follow the SMILES beside them. Chains are numbered I, II in the order given. Actinocin(9to1) = Cc1c2oc3c(C)ccc(C(=O)[*:1])c3nc-2c(C(=O)[*:2])c(N)c1=O; NMeV = CN[C@H](C(=O)O)C(C)C; Sar = CNCC(=O)O
What was measured:
[1] = cited from earlier work; for dose excreted or recovered in the urine: unchanged, intact or active drug; for absorption: oral
[2] = oral and parental routes; cited from earlier work
breast cancer cells = test: Sensitization to Taxol-mediated cytotoxicity; format: cell-based, human; details: blocking p38 activity, together with constitutively active Akt
Protocol: The indirect measure of the viable cells after exposure to Taxol using the metabolic conversion of tetrazolium salt (MTT) to formazan was used. Cells (3×10^3/well) were seeded in triplicate in 96-well culture plates in 0.2 ml of culture medium and allowed to adhere for 24 h. After exposure to Taxol for a certain period of time, 20 μl of MTT was then added to each well. Cells were cultured for an additional 2 h, and followed by addition of 100 μl of extraction buffer (20% SDS in 50% N,N-dimethyl formamide, pH 4.7). The cells were incubated overnight at 37° C., and the plates were absorbance at 570 nm was measured.

Akt = test: Relative Akt activity (Akt-p versus Akt-c) after blocking p38; format: cell-based, human; details: 20 μM, 8 hours, E1A stable expressing MDA-MB-231 cells
Protocol: (§1) In order to determine the relationships between the Akt pathway and the p38 pathway, experiments were performed with inhibitors of both pathways. Wortmannin was used to inhibit the Akt pathway. Wortmannin is a drug that inhibits P13K which is a signal protein that is directly upstream of Akt in the Akt pathway. A synthetic compound, SB203580, was used as a p38 specific inhibitor. Cells were serum starved overnight and were then treated with either SB203580 (20 μM) or Wortmannin (0.1 μM) for 4 hours, 8, hours, 16 hours, 24 hours, 36 hours. When p38 activity was blocked by SB203580 for 8 hours, the Akt activity was increased by approximately 3 fold in E1A stable expressing MDA-MB-231 cells. Whereas, when Akt activity was blocked by Wortmannin for 4 hours, the p38 activity was enhanced to approximately 6 fold. The relative p38 activity (p38-p versus p38-c) and relative Akt activity (Akt-p versus Akt-c) are illustrated in FIG. 2A and FIG. 2B respectively.

MDA-MB-231 cells = test: Taxol treatment of 231 vector and 231-E1A tumors in nude mice; format: in vivo
From the text: To establish orthotopic breast cancer model in nude mice, human MDA-MB-231 cells were inoculated into the mammary fat pad (m.f.p.) of mouse. Tumor size were monitored and caculated on a weekly basis.
Expression of E1A enhanced the anti-tumor effect of the chemotherapeutic drug Taxol in nude mice in vivo and prolonged animal survival rate. […] TUNEL labeling of apoptotic cells in the tumor tissues with or without treatment of Taxol also confirms this. The treatment groups included the SN vehicle, SN-liposome-E1A, Taxol alone, and Taxol plus SN-E1A. At least 7 animals were included in each group.

p38 = test: Relative p38 activity (p38-p versus p38-c) after blocking Akt; format: cell-based, human; details: 0.1 μM, 4 hours
Protocol: as §1

For `Cc1c2oc3c(C)ccc(C(=O)N[C@@H]4C(=O)N[C@H](C(C)C)C(=O)N5CCC[C@H]5C(=O)N(C)CC(=O)N(C)[C@@H](C(C)C)C(=O)O[C@@H]4C)c3nc-2c(C(=O)N[C@@H]2C(=O)N[C@H](C(C)C)C(=O)N3CCC[C@H]3C(=O)N(C)CC(=O)N(C)[C@@H](C(C)C)C(=O)O[C@@H]2C)c(N)c1=O` [Actinomycin D] (I: T[dV]P[Sar][NMeV] / II: T[dV]P[Sar][NMeV]; ester I:1-I:C, II:1-II:C; linker I:N-II:N via Actinocin(9to1)), the “excreted intact into the bile” value ([1]; in vivo) is listed as “Half of the dose” and the “dose excreted or recovered in the urine” value [1] is listed as 10%.
In the case of `O=C(O)CCCc1ccc(N(CCCl)CCCl)cc1` [Chlorambucil, 4-[bis(2-chlorethyl)amino] benzenebutanoic acid], the “absorption” value [1] is listed as “rapidly and completely absorbed from the gastrointestinal tract”.
For `N.N.[Cl][Pt][Cl]` [Cisplatin], the “absorption” value [1] is given as “not absorbed orally”.
For `O=P1(N(CCCl)CCCl)NCCCO1` (stereo not shown) [Cyclophosphamide, 2H -1,3,2-Oxazaphosphorin-2-amine, N,N-bis(2-chloroethyl)tetrahydro-, 2-oxide, monohydrate], the local tolerance [2] is given as “does not cause local vesication, necrosis, phlebitis or even pain”.
In the case of `COc1cccc2c1C(=O)c1c(O)c3c(c(O)c1C2=O)C[C@@](O)(C(C)=O)C[C@@H]3O[C@H]1C[C@H](N)[C@H](O)[C@H](C)O1` [Daunorubicin, 5,12-Naphthacenedione, (8S-cis)-8-acetyl-10-[(3-amino-2,3,6-trideoxy-a-L-lyxo-hexanopyranosyl)oxy]-7,8,9,10-tetrahydro-6,8,11-trihydroxy-10-methoxy-, hydrochloride], the “absorption” value [1] is listed as “poor”.
In the case of `COc1cccc2c1C(=O)c1c(O)c3c(c(O)c1C2=O)C[C@@](O)(C(=O)CO)C[C@@H]3O[C@H]1C[C@H](N)[C@H](O)[C@H](C)O1` [Doxorubicin, 5,12-Naphthacenedione, (8s-cis)-10-[(3-amino-2,3,6-trideoxy-a-L-lyxo-hexopyranosyl)oxy]-7,8,9,10-tetrahydro-6,8,11-trihydroxy-8-(hydroxyacetyl)-1-methoxy-hydrochloride], the “absorption” value [1] is given as “absorbed poorly”.
For `CO[C@@]12[C@H](COC(N)=O)C3=C(C(=O)C(C)=C(N)C3=O)N1C[C@@H]1N[C@@H]12` [Mitomycin], the “dose excreted or recovered in the urine” value [1] is listed as “Approximately 10%”.
In the case of `C[S+]([O-])c1ccc(-c2nc(-c3ccncc3)c(-c3ccc(F)cc3)[nH]2)cc1` (stereo not shown) [SB203580], the “effect on the ability of E1A to sensitize cells to Taxol-mediated cytotoxicity” value (breast cancer cells) is reported as “partially abrogated” and the “increase of Akt activity” value (Akt) is reported as “approximately 3 fold”.
With `CC(=O)O[C@H]1C(=O)[C@@]2(C)[C@H]([C@H](OC(=O)c3ccccc3)[C@]3(O)C[C@H](OC(=O)[C@H](O)[C@@H](NC(=O)c4ccccc4)c4ccccc4)C(C)=C1C3(C)C)[C@]1(OC(C)=O)CO[C@@H]1C[C@@H]2O` [Taxol] the “therapeutic effect of Taxol in E1A tumors versus vector tumors” value (MDA-MB-231 cells; 231-E1A cells) was “more dramatic therapeutic effect” and the “tumor growth under Taxol treatment” value (MDA-MB-231 cells; 231 vector and 231-E1A tumors) was “repressed tumor growth”.
For `CC[C@]1(O)C[C@@H]2CN(CCc3c([nH]c4ccccc34)[C@@](C(=O)OC)(c3cc4c(cc3OC)N(C)[C@H]3[C@@](O)(C(=O)OC)[C@H](OC(C)=O)[C@]5(CC)C=CCN6CC[C@]43[C@@H]65)C2)C1` [Vinblastine], the “absorption” value [1] is listed as “Unpredictable absorption” and the “dose excreted or recovered in the urine” value [1] is listed as “Approximately 15%”.
For `CC[C@]1(O)C[C@H]2CN(CCc3c([nH]c4ccccc34)[C@@](C(=O)OC)(c3cc4c(cc3OC)N(C=O)[C@H]3[C@@](O)(C(=O)OC)[C@H](OC(C)=O)[C@]5(CC)C=CCN6CC[C@]43[C@@H]65)C2)C1` [Vincristine], the “absorption” value [1] is listed as “Unpredictable absorption”.
For `COC[C@H]1OC(=O)c2coc3c2[C@@]1(C)C1=C(C3=O)[C@@H]2CCC(=O)[C@@]2(C)C[C@H]1OC(C)=O` [Wortmannin], the “enhancement of p38 activity” value (p38) was “approximately 6 fold”.
